According to ChEMBL document CHEMBL3885881, “DrugMatrix”:

Species: Rattus norvegicus
Assay: DrugMatrix - Regimen: Daily Repeat
Assay type: toxicity, organism-based, Sprague-Dawley
Parameters: regimen Daily Repeat, gender Male, age 6-8 weeks
Details: in vivo, po, route oral GAVAGE, vehicle 100 % WATER; for ABSOLUTE BASOPHIL / ABSOLUTE EOSINOPHIL / ABSOLUTE LYMPHOCYTE / ABSOLUTE MONOCYTE / ABSOLUTE SEGMENTED NEUTROPHIL / BASOPHIL / EOSINOPHIL / ERYTHROCYTE COUNT / HEMATOCRIT / HEMOGLOBIN / LEUKOCYTE COUNT / LYMPHOCYTE / MEAN CORPUSCULAR HEMOGLOBIN / MEAN CORPUSCULAR HEMOGLOBIN CONCENTRATION / MEAN CORPUSCULAR VOLUME / MONOCYTE / NEUTROPHIL / NUCLEATED RED BLOOD CELLS / PLATELET COUNT: tissue Blood; for ALANINE AMINOTRANSFERASE / ALBUMIN / ALKALINE PHOSPHATASE / ASPARTATE AMINOTRANSFERASE / BLOOD UREA NITROGEN / CARBON DIOXIDE / CHLORIDE / CHOLESTEROL / CREATINE PHOSPHOKINASE / CREATININE / GLUCOSE / LACTATE DEHYDROGENASE / LIPASE / PHOSPHORUS / POTASSIUM / SODIUM / TOTAL BILIRUBIN / TOTAL PROTEIN / URIC ACID: tissue Plasma
[1] = 0 mg/kg, 72 h, dose level Control, time 3 day
[2] = 0 mg/kg, 120 h, dose level Control, time 5 day
[3] = 25 mg/kg, 72 h, dose level Low, time 3 day

c1ccc([C@H]2CN3CCSC3=N2)cc1 [LEVAMISOLE]
ABSOLUTE BASOPHIL [1]: 0 CELLS/uL | ABSOLUTE EOSINOPHIL [1]: 20.17 CELLS/uL | ABSOLUTE LYMPHOCYTE [1]: 12371.67 CELLS/uL | ABSOLUTE MONOCYTE [1]: 166 CELLS/uL | ABSOLUTE SEGMENTED NEUTROPHIL [1]: 1292.17 CELLS/uL | BASOPHIL [1]: 0% | EOSINOPHIL [1]: 0.17% | ERYTHROCYTE COUNT [1]: 5.46 x10E6/uL | HEMATOCRIT [1]: 34.38% | HEMOGLOBIN [1]: 13.32 G/DL | LEUKOCYTE COUNT [1]: 13.85 x10E3/uL | LYMPHOCYTE [1]: 88.5% | MEAN CORPUSCULAR HEMOGLOBIN [1]: 24.42 pg | MEAN CORPUSCULAR HEMOGLOBIN CONCENTRATION [1]: 38.7 G/DL | MEAN CORPUSCULAR VOLUME [1]: 63.07 fL | MONOCYTE [1]: 1.17% | NEUTROPHIL [1]: 10.17% | NUCLEATED RED BLOOD CELLS [1]: 0.17 /100WBC | PLATELET COUNT [1]: 1193.5 x10E3/uL | ALANINE AMINOTRANSFERASE [1]: 54.5 u/L | ALBUMIN [1]: 4.02 G/DL | ALKALINE PHOSPHATASE [1]: 346.5 u/L | ASPARTATE AMINOTRANSFERASE [1]: 103.17 u/L | BLOOD UREA NITROGEN [1]: 16.5 mg/dL | CARBON DIOXIDE [1]: 29.83 mmol/L | CHLORIDE [1]: 99.5 MEQ/L | CHOLESTEROL [1]: 72.5 mg/dL | CREATINE PHOSPHOKINASE [1]: 532.5 u/L | CREATININE [1]: 0.18 mg/dL | GLUCOSE [1]: 168.5 mg/dL | LACTATE DEHYDROGENASE [1]: 536.5 u/L | LIPASE [1]: 11.17 u/L | PHOSPHORUS [1]: 11.48 mg/dL | POTASSIUM [1]: 5.95 MEQ/L | SODIUM [1]: 140.5 MEQ/L | TOTAL BILIRUBIN [1]: 0.18 mg/dL | TOTAL PROTEIN [1]: 5.77 G/DL | URIC ACID [1]: 1.42 mg/dL | ABSOLUTE BASOPHIL [2]: 0 CELLS/uL | ABSOLUTE EOSINOPHIL [2]: 22.83 CELLS/uL | ABSOLUTE LYMPHOCYTE [2]: 12202.83 CELLS/uL | ABSOLUTE MONOCYTE [2]: 158 CELLS/uL | ABSOLUTE SEGMENTED NEUTROPHIL [2]: 1283 CELLS/uL | BASOPHIL [2]: 0% | EOSINOPHIL [2]: 0.17% | ERYTHROCYTE COUNT [2]: 5.88 x10E6/uL | HEMATOCRIT [2]: 36.62% | HEMOGLOBIN [2]: 14.07 G/DL | LEUKOCYTE COUNT [2]: 13.67 x10E3/uL | LYMPHOCYTE [2]: 89.5% | MEAN CORPUSCULAR HEMOGLOBIN [2]: 23.95 pg | MEAN CORPUSCULAR HEMOGLOBIN CONCENTRATION [2]: 38.43 G/DL | MEAN CORPUSCULAR VOLUME [2]: 62.28 fL | MONOCYTE [2]: 1.17% | NEUTROPHIL [2]: 9.17% | NUCLEATED RED BLOOD CELLS [2]: 0.17 /100WBC | PLATELET COUNT [2]: 1198 x10E3/uL | ALANINE AMINOTRANSFERASE [2]: 51 u/L | ALBUMIN [2]: 4.3 G/DL | ALKALINE PHOSPHATASE [2]: 343 u/L | ASPARTATE AMINOTRANSFERASE [2]: 89.83 u/L | BLOOD UREA NITROGEN [2]: 17.67 mg/dL | CARBON DIOXIDE [2]: 27.17 mmol/L | CHLORIDE [2]: 98.33 MEQ/L | CHOLESTEROL [2]: 82.5 mg/dL | CREATINE PHOSPHOKINASE [2]: 533.33 u/L | CREATININE [2]: 0.18 mg/dL | GLUCOSE [2]: 152.67 mg/dL | LACTATE DEHYDROGENASE [2]: 220.33 u/L | LIPASE [2]: 11.5 u/L | PHOSPHORUS [2]: 11.25 mg/dL | POTASSIUM [2]: 6.29 MEQ/L | SODIUM [2]: 140.53 MEQ/L | TOTAL BILIRUBIN [2]: 0.22 mg/dL | TOTAL PROTEIN [2]: 6.12 G/DL | URIC ACID [2]: 1.42 mg/dL | ABSOLUTE BASOPHIL [3]: 0 CELLS/uL | ABSOLUTE EOSINOPHIL [3]: 0 CELLS/uL | ABSOLUTE LYMPHOCYTE [3]: 9283.33 CELLS/uL | ABSOLUTE MONOCYTE [3]: 29.33 CELLS/uL | ABSOLUTE SEGMENTED NEUTROPHIL [3]: 1254 CELLS/uL | BASOPHIL [3]: 0% | EOSINOPHIL [3]: 0% | ERYTHROCYTE COUNT [3]: 5.36 x10E6/uL | HEMATOCRIT [3]: 32.73% | HEMOGLOBIN [3]: 13 G/DL | LEUKOCYTE COUNT [3]: 10.57 x10E3/uL | LYMPHOCYTE [3]: 87.67% | MEAN CORPUSCULAR HEMOGLOBIN [3]: 24.3 pg | MEAN CORPUSCULAR HEMOGLOBIN CONCENTRATION [3]: 39.73 G/DL | MEAN CORPUSCULAR VOLUME [3]: 61.17 fL | MONOCYTE [3]: 0.33% | NEUTROPHIL [3]: 12% | NUCLEATED RED BLOOD CELLS [3]: 0 /100WBC | PLATELET COUNT [3]: 1056.33 x10E3/uL | ALANINE AMINOTRANSFERASE [3]: 64.33 u/L | ALBUMIN [3]: 3.87 G/DL | ALKALINE PHOSPHATASE [3]: 326.33 u/L | ASPARTATE AMINOTRANSFERASE [3]: 98.67 u/L | BLOOD UREA NITROGEN [3]: 14.33 mg/dL | CARBON DIOXIDE [3]: 30 mmol/L | CHLORIDE [3]: 99 MEQ/L | CHOLESTEROL [3]: 78.33 mg/dL | CREATINE PHOSPHOKINASE [3]: 446 u/L | CREATININE [3]: 0.19 mg/dL | GLUCOSE [3]: 155 mg/dL | LACTATE DEHYDROGENASE [3]: 214 u/L | LIPASE [3]: 10.67 u/L | PHOSPHORUS [3]: 11.53 mg/dL | POTASSIUM [3]: 5.92 MEQ/L | SODIUM [3]: 142 MEQ/L | TOTAL BILIRUBIN [3]: 0.17 mg/dL | TOTAL PROTEIN [3]: 5.57 G/DL
